# Source: US20250177396A1, “POLO-LIKE KINASE 4 (PLK4) INHIBITORS, PHARMACEUTICAL COMPOSITIONS, METHODS OF PREPARATION AND USES THEREOF” (Repare Therapeutics Inc., priority 2022, published 2025)
# Target: T1, PLK4 (Homo sapiens, UniProt O00444)
# T1 construct: expressed in transfected cells; host or cells: HEK293 T cells (ATCC CRL-3216)
# T1 sequence (O00444 1-970): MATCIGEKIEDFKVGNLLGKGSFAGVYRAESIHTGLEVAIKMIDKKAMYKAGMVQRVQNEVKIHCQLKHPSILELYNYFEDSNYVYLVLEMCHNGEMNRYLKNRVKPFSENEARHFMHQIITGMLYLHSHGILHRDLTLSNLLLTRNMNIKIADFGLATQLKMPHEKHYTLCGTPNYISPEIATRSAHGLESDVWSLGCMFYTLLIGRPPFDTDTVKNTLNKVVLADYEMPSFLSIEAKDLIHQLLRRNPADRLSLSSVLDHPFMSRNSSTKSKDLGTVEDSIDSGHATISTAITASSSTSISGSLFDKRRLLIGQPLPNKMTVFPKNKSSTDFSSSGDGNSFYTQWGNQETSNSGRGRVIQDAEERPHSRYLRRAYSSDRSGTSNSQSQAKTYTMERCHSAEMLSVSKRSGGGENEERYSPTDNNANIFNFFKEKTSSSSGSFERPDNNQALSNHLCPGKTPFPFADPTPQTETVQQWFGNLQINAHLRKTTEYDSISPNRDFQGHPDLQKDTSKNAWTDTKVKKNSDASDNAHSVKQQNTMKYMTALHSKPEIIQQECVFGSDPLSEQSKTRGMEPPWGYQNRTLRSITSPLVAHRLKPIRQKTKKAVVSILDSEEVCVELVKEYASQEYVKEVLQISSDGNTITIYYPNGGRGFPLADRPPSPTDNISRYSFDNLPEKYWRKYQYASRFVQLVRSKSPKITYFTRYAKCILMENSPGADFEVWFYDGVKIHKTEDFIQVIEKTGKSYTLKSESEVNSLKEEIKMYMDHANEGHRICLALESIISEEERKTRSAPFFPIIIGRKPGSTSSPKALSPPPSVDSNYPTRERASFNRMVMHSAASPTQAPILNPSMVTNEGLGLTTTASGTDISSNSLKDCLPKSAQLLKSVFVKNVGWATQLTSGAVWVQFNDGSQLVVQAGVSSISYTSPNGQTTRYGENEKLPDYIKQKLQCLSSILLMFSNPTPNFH
# Experiment: PLK4 NanoBRET target engagement assay
# Type: binding
# Details: HEK293 T cells transfected with PLK4 NanoLuc fusion vector; K-5 tracer; 2 hrs incubation
# Procedure, shortened: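 HEK293T cells transiently expressing PLK4-NanoLuc, plated at 17000 cells/well with K-5 tracer and compound, incubated 2 h at 37 °C/5% CO2. After substrate/inhibitor mix, 610/450 nm emission ratio ×1000 gave mBRET; IC50 from 4-parameter fit.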
row,IC50 [nM],Structure (SMILES)
1,220,"COc1c(Nc2cc(C)[nH]n2)nc(Nc2ccc(S(C)(=O)=O)cc2F)nc1-c1cnn(C)c1 [Compound 1, N^2-(2-fluoro-4-(methylsulfonyl)phenyl)-5-methoxy-N^4-(5-methyl-1H-pyrazol-3-yl)-6-(1-methyl-1H-pyrazol-4-yl)pyrimidine-2,4-diamine]"
2,150,CN(c1nc(Nc2n[nH]c3c2CCC3)c(C2CC2)c(-c2cnn(C)c2)n1)c1c(F)cc(S(C)(=O)=O)cc1F [Compound 285]
3,740,COc1c(Nc2cc(C)[nH]n2)nc(N(C)c2cccc(C(=O)N(C)C)c2F)nc1-c1cnn(C)c1 [Compound 71]
4,96,"COc1c(Nc2cc(C)[nH]n2)nc(Sc2ccc(S(C)(=O)=O)cc2F)c(C)c1-c1cnn(C)c1 [Compound 22, 6-((2-fluoro-4-(methylsulfonyl)phenyl)thio)-3-methoxy-5-methyl-N-(5-methyl-1H-pyrazol-3-yl)-4-(1-methyl-1H-pyrazol-4-yl)pyridin-2-amine]"
5,5,Cc1cc(Nc2nc(N(C)c3c(F)cc(S(C)(=O)=O)cc3F)nc(-c3cc4n(C)c(=O)ccn4n3)c2C2CC2)n[nH]1 [Compound 245]
6,8,CNC(=O)c1c(-c2nc(N(C)c3c(F)cc(S(C)(=O)=O)cc3F)nc(Nc3cc(C)[nH]n3)c2C2CC2)cnn1C [Compound 261]
7,24,Cc1cc(Nc2nc(N(C)c3c(F)cc(S(C)(=O)=O)cc3F)nc(-c3cc4[nH]c(=O)ccn4n3)c2C2CC2)n[nH]1 [Compound 286]
8,4,Cc1cc(Nc2nc(N(C)c3c(F)cc(S(C)(=O)=O)cc3F)nc(-c3cc4n(n3)CCOC4)c2C2CC2)n[nH]1 [Compound 240]
9,13,Cc1cc(Nc2nc(N(C)c3c(F)cc(S(C)(=O)=O)cc3F)nc(-c3cnn4c3CC(C)(C)C4)c2C2CC2)n[nH]1 [Compound 176]
10,1300,COc1c(Nc2cc(C)[nH]n2)nc(Oc2c(F)cc(Br)cc2F)nc1-c1cnn(C)c1 [Compound 29]
11,48,Cc1cc(Nc2nc(N(C)c3c(F)cc(S(C)(=O)=O)cc3F)nc(N3CC4(C3)CC(C)(O)C4)c2C2CC2)n[nH]1 [Compound 268]
12,680,COc1c(Nc2cc(C)[nH]n2)nc(N(C(C)=O)c2ccc(S(C)(=O)=O)cc2F)nc1-c1cnn(C)c1 [Compound 41]
13,2300,COc1c(Nc2cc(C)[nH]n2)nc(N(C)c2ccc([S+](C)[O-])cc2)nc1-c1cnn(C)c1 (stereo not shown) [Compound 79]
14,3,COCCn1ncc(-c2nc(N(C)c3c(F)cc(S(C)(=O)=O)cc3F)nc(Nc3cc(C4CC4)[nH]n3)c2C2CC2)c1C [Compound 277]
15,31,Cc1cc(Nc2nc(N(C)c3c(F)cc(C4CCOCC4)cc3F)nc(-c3cn(C)cn3)c2C2CC2)n[nH]1 [Compound 350]
16,5,Cc1cc(Nc2nc(N(C)c3c(F)cc(S(C)(=O)=O)cc3F)nc(-c3cnn(C)c3C(=O)N(C)C)c2C2CC2)n[nH]1 [Compound 260]
17,770,COc1c(Nc2cc(C)[nH]n2)nc(N(C)c2ccc(CN(C(C)=O)c3ccccc3)cc2F)nc1-c1cnn(C)c1 [Compound 50]
18,2100,COc1c(Nc2cc(C)[nH]n2)nc(N(C)c2ccc(S(C)(=O)=O)nc2C)nc1-c1cnn(C)c1 [Compound 54]
19,9,Cc1cc(Nc2nc(N(C)c3c(F)cc(S(C)(=O)=O)cc3F)nc(-c3c[nH]cn3)c2C2CC2)n[nH]1 [Compound 103]
20,53,"COc1c(-c2cnn(C)c2)cc(Sc2ccc(S(C)(=O)=O)cc2F)nc1Nc1cc(C)[nH]n1 [Compound 21, 6-((2-fluoro-4-(methylsulfonyl)phenyl)thio)-3-methoxy-N-(5-methyl-1H-pyrazol-3-yl)-4-(1-methyl-1H-pyrazol-4-yl)pyridin-2-amine]"
21,2,CN(c1nc(Nc2cc(C3CC3)[nH]n2)c(C2CC2)c(-c2cn3c(n2)COCC3)n1)c1c(F)cc(S(C)(=O)=O)cc1F [Compound 273]
22,3,Cc1cc(Nc2nc(N(C)c3c(F)cc(S(C)(=O)=O)cc3F)nc(-c3cn(C(C)C)cn3)c2C2CC2)n[nH]1 [Compound 137]

row,IC50 [nM],Structure (SMILES)
1,46,COc1c(Nc2cc(C)[nH]n2)nc(N(C)c2ccc(S(=O)(=O)C(C)(C)C)cc2F)nc1-c1cnn(C)c1 [Compound 76]
2,610,Cc1cc(Nc2nc(N(C)c3c(F)cc(S(C)(=O)=O)cc3F)nc(-c3cn(CCS(C)(=O)=O)c(C)n3)c2C2CC2)n[nH]1 [Compound 192]
3,77,COc1cc(F)c(N(C)c2nc(Nc3cc(C)[nH]n3)c(C3CC3)c(-c3cn(C)cn3)n2)c(F)c1 [Compound 338]
4,240,COc1c(Nc2cc(C)[nH]n2)nc(Sc2ccc(S(C)(=O)=O)cc2F)c(Cl)c1-c1cnn(C)c1 [Compound 100]
5,21,Cc1cc(Nc2nc(N(C)c3c(F)cc(S(C)(=O)=O)cc3F)nc(N3CCn4nccc4C3)c2C2CC2)n[nH]1 [Compound 250]
6,7,Cc1cc(Nc2nc(N(C)c3c(F)cc(S(C)(=O)=O)cc3F)nc(-c3cn(CCOC(F)(F)F)c(C)n3)c2C2CC2)n[nH]1 [Compound 259]
7,51,Cc1cc(Nc2nc(N(C)c3c(F)cc(S(C)(=O)=O)cc3F)nc(Nc3cnccn3)c2C2CC2)n[nH]1 [Compound 328]
8,18,Cc1cc(Nc2nc(N(C)c3c(F)cc(S(C)(=O)=O)cc3F)nc(-c3ccncn3)c2C2CC2)n[nH]1 [Compound 135]
9,> 5000,Cc1cc(Nc2nc(N(C)c3c(F)cc(CC(=O)N4CCC4)cc3F)nc(-c3cn(C)cn3)c2C2CC2)n[nH]1 [Compound 363]
10,740,Cc1cc(Nc2nc(N(C)c3ccc(S(C)(=O)=O)cc3F)nc(-n3cncn3)c2C2CC2)n[nH]1 [Compound 105]
11,9,Cc1cc(Nc2nc(N(C)c3c(F)cc(S(C)(=O)=O)cc3F)nc(-c3cn(CC(C)(C)O)nc3C)c2C2CC2)n[nH]1 [Compound 330]
12,22,Cc1cc(Nc2nc(N(C)c3c(F)cc(S(C)(=O)=O)cc3F)nc(-c3cnn4ccncc34)c2C2CC2)n[nH]1 [Compound 288]
13,4,COCCn1cc(-c2nc(N(C)c3c(F)cc(S(C)(=O)=O)cc3F)nc(Nc3cc(C4CC4)[nH]n3)c2C2CC2)c(C)n1 [Compound 276]
14,10,Cc1cc(Nc2nc(N(C)c3c(F)cc([N+](=O)[O-])cc3F)nc(-c3cn(C)cn3)c2C2CC2)n[nH]1 [Compound 360]
15,7,Cc1cc(Nc2nc(N(C)c3c(F)cc(S(C)(=O)=O)cc3F)nc(-c3oc(C)nc3C)c2C2CC2)n[nH]1 [Compound 151]
16,45,Cc1cc(Nc2nc(N(C)c3c(F)cc(S(C)(=O)=O)cc3F)nc(N3CC(n4cccn4)C3)c2C2CC2)n[nH]1 [Compound 233]
17,5,[2H]C([2H])([2H])n1cc(-c2nc(N(C)c3c(F)cc(S(C)(=O)=O)cc3F)nc(Nc3cc(C)[nH]n3)c2C2CC2)c(C)n1 [Compound 152]
18,26,Cc1cc(Nc2nc(N(C)c3c(F)cc(C4CC4)cc3F)nc(-c3cn(C)cn3)c2C2CC2)n[nH]1 [Compound 343]
19,9,Cc1cc(Nc2nc(N(C)c3c(F)cc(S(C)(=O)=O)cc3F)nc(-c3cnn(C(F)F)c3)c2C2CC2)n[nH]1 [Compound 131]
20,6,Cc1cc(Nc2nc(N(C)c3c(F)cc(S(C)(=O)=O)cc3F)nc(-c3cnn4c3OCCC4)c2C2CC2)n[nH]1 [Compound 203]
21,4,Cc1cc(Nc2nc(N(C)c3c(F)cc(S(C)(=O)=O)cc3F)nc(-c3cnn(C)c3N3CCOC3=O)c2C2CC2)n[nH]1 [Compound 342]
